Measured values published in patent publication US20230095509A1, “NON-FIBRILLAR HEMOGLOBIN S OLIGOMERS AND METHODS TO IDENTIFY MODULATORS OF HEMOGLOBIN S POLYMERIZATION” (REGENTS OF THE UNIVERSITY OF MINNESOTA, priority 2021, published 2023).
“Also recorded” adds a separate entry of the source.

Experiments:
[1] = target: T1, deoxyHbS oligomers (HbS-rhodamine red / HbS-Cy5) (Homo sapiens, UniProt P68871+P69905, E7V); experiment: Fluorescence lifetime (FLT) FRET assay of deoxyHbS oligomerization (LOPAC screen and dose response); assay type: biochemical; details: for FRET efficiency in dose response: 0.1 to 1000 μM, 2 hours at room temperature, then degassed, FIG. 4B; for FRET efficiency of HbS under deoxy conditions: known polymerization inhibitors as controls, FIG. 1D
T1 construct: purchased Sigma
Protocol: Development of HTS platform for identification of small molecules that inhibit in vitro HbS nucleation: Sickle hemoglobin (HbS) (sigma) was labeled with either fluorescent donor (rhodamine red) or acceptor (Cy5) dyes (Thermo fisher scientific) via a cysteine thiol group. For labeling, lyophilized HbS (10 mg/ml) was dissolved in PBS (Sigma) and then centrifuged at 13000 g for five minutes at 4° C. to remove the debris. After centrifugation protein sample was incubated with TCEP (0.5-1 mM) for 20 minutes at room temperature to reduce the cysteine side-chain. This protein mixture was incubated with 1.5 mM dye (dissolved in DMSO or water) for two hours in the dark at room temperature or overnight at 4° C. Unreacted free dye was removed by dialysis against PBS. The degree of labeling was calculated by comparing the absorption of the fluorophore conjugated hemoglobin at 280 nm to the absorbance of the dye at its maximum wavelength. The dye concentration was measured by absorbance, using extinction coefficients of 250,000 M −1 cm -1 for Cy5 conjugates and 88000 M −1 cm -1 for Rhodamine Red conjugates.
High-Throughput Screening of LOPAC Library to Identify Compounds That Inhibit HbS Oligomerization Under Deoxy Condition: The LOPAC compounds (Thermo Fisher Scientific) were received in 96-well plates. Assay plates were prepared by transferring 5 nL of the 10 mM compound stocks or DMSO from the source plates to 1536-well black polypropylene plates (Greiner), using an Echo 550 acoustic dispenser (Labcyte). During screening, donor sample (HbS/Rhodamine Red) was mixed with acceptor (HbS/Cy5) at 1:5 ratios. Then protein samples were dispensed (5 μL, 25 μM) by a Multidrop Combi Reagent Dispenser (Thermo Fisher Scientific) into the 1536-well assay plates containing the compounds and incubated at room temperature for two hours. After incubation, protein samples were degassed for 10-15 minutes using vacuum argon degassing method. Lifetime measurements were taken by the fluorescence lifetime plate reader (Fluorescence Innovations, Inc).
Fluorescence Data Acquisition: We tested the functionality of the HbS FRET pair by measuring lifetimes of oxy-and deoxy HbA and HbS using a fluorescence lifetime plate reader (FIG. 3A). Lifetimes are reciprocally related to FRET, so a decrease in lifetime corresponds to an increase in FRET. Donor fluorescence was excited with a 532 nm laser (Teem Photonics SNG-20F-100, Meylan, France), delivering pulses of -0.3 μJ energy at a 20 kHz repetition rate, and emission was filtered with 546 nm long pass and 586/20 nm band pass filters. This filter was selected to exclude acceptor fluorescence, as only the lifetime of the donor fluorescent protein is required to calculate FRET (Equation (1)). The photomultiplier tube (PMT) voltage was adjusted so that the peak signals of the instrument response function (IRF) and FRET biosensor were similar.
High-Throughput Screening Data Analysis: Time resolve-fluorescence waveforms for each well were fitted with single-exponential decays using least-squares minimization global analysis software (Petersen et al., F2014, Rev Sci Instrum 85, 113101). FRET efficiency (E) was determined as the fractional decrease of donor lifetime (T_D ), due to the presence of acceptor fluorophore (T_DA) using equation 1: […]
These drug compounds were dissolved in DMSO to make 20 mM stock solution. Hits were screened at seven different concentrations. Protein samples were dispensed into the 96-well assay plates and incubated with hit compounds at room temperature for two hours. After incubation, protein samples were degassed for 10 minutes using vacuum argon degassing method. Lifetime measurements were taken by the fluorescence lifetime plate reader (Fluorescence Innovations, Inc).

[2] = tested on: RBC from healthy donors (genotype HbAA); experiment: Microfluidic measurement of RBC oxygen saturation (Quantitative Absorption Cytometry, P50); assay type: cell-based, human; details: for P50 (hemoglobin oxygen binding affinity) relative to control: 500 μM, RBC from 4 healthy donors, 1 hr at 37C at 25% hematocrit, diluted to 1% hematocrit with drug, FIG. 10
Protocol: Measurement of hemoglobin oxygen saturation in RBC from 4 healthy donors (genotype HbAA). RBC at 25% hematocrit were incubated with 500 uM voxelotor, chlormezanone, gabazine, or DMSO (control) for 1 hr at 37C and then diluted to 1% hematocrit with drug.
Microfluidic Measurement of RBC Oxygen Saturation: The Quantitative Absorption Cytometry assay described previously (Di Caprio et al., 2019, Proc Natl Acad Sci USA 116, 25236-25242; Di Caprio et al., 2015, Proc Natl Acad Sci USA 112, 9984-9989), takes images of single red blood cells (RBC) under alternating 410 nm and 430 nm LEDs. Due to the unique absorption spectra of oxy and deoxy hemoglobin the transmitted light at 410 nm and 430 nm permits measurement of the single cell saturation can be calculated. The cells are perfused through a microfluidic device with oxygen control that permits measurement of the oxygen saturation of a population of RBC under defined oxygen tension. The polydimethysiloxane (PDMS) microfluidic device for this assay comprises two layers- a gas layer and a blood layer bonded to a glass coverslip. These two layers are separated by 100 μm of PDMS. The gas layer allows for precise control of oxygen tension that will diffuse to the blood layer; the blood layer contains a 30 mm diffusion section to allow red blood cells to reach steady state saturation and a 5 mm observation section to imaging RBCs.
To prepare RBC for measurement, blood samples were washed and resuspended in 10% w/v BSA in PBS, and 0.5 μL of 100 mM therapeutic in DMSO was added to the sample. The sample was then incubated on a shaker plate at 37° C. for one hour. After incubation samples were washed again and 10 μL packed red blood cells was added to a solution of 288 μL 25% Human Serum Albumin (HAS) solution (Gemini Bio).
In this assay, we prepared samples identically to the preparation for blood flow by incubating with drug at 25% hematocrit, and then we diluted the samples to 1% hematocrit with […] drug in the dilution buffer.

Row | FRET efficiency of HbS under deoxy conditions [1] | FRET efficiency of HbS under deoxy conditions ([1]; listed as Voxelotor) | SMILES | IC50 [1] | FRET efficiency in dose response [1] | effect on FRET efficiency in the LOPAC pilot screen ([1]; LOPAC screen, mean of three independent screens, FIG. 4A) | P50 (hemoglobin oxygen binding affinity) relative to control [2] | modification of hemoglobin ([2]; samples diluted to 1% hematocrit with drug in the dilution buffer)
1 |  |  | CN1C(=O)CCS(=O)(=O)C1c1ccc(Cl)cc1 (stereo not shown) [chlormezanone] | > 100 µM | decreased FRET efficiency in a dose-dependent manner | by far the largest effect | neither chlormezanone nor gabazine significantly shifted P50; also recorded: no significant (p>0.05) change in P50 | 
2 |  |  | COc1ccc(-c2ccc(=N)n(CCCC(=O)O)n2)cc1 [gabazine] |  | decreased FRET efficiency in a dose-dependent manner |  | neither chlormezanone nor gabazine significantly shifted P50; also recorded: no significant (p>0.05) change in P50 | 
3 | decreased the FRET efficiency | reduced FRET efficiency | CC(C)n1nccc1-c1ncccc1COc1cccc(O)c1C=O [voxelotor] |  |  |  | significantly (p<0.05) decreases P50; also recorded: large shift in P50; also recorded: significantly decreased the P50 | ~100%
